Assay results published in patent US20220040133A1.

Key:
[1] = test system: BxPC3 pancreatic cancer cells; assay: Oral efficacy in human BxPC3 pancreatic cancer xenografts in mice; type: in vivo; design: dose or concentration left out as unconfirmed; details: BxPC3 xenograft, CD-1 nude mice; oral dose for 4 weeks; FIG. 2
Procedure: CD1-Nu/Nu female mice, ˜4-6 weeks old were obtained from Charles River Laboratories. Mice were housed 5 to a cage in a micro-isolator room in the Department of Animal Laboratory Research of New York State University (SUNY) at Stony Brook. Light-dark cycles were 12 h each daily, with light from 7 a.m. to 7 p.m. Food (Purina Rodent Chow) and water (distilled sterile-filtered water, pH 7) were provided ad libitum. Protocols and procedures were according to the rules of and approved by the SUNY Institutional Animal Care and Use Committee (IACUC).
An acclimation period of 7 days was allowed between the arrival of the animal at the study site before tumor inoculation and experimentation. Mice were inoculated subcutaneously (SC) in the right flank with 2×10^6 human H460 NSCLC or BxPC3 pancreatic cancer cells that were suspended in 0.1 mL of Dulbeco's Phosphate Buffered Salt (PBS) solution using a 1 cc syringe with a 27⅝ gauge needle. Tumor dimensions (length and width) were measured daily before, during and after treatment (using Vernier calipers) and the tumor volume was calculated using the prolate ellipsoid formula: (length×width^2)/2. Treatment with test or control articles began 8 days post tumor cell implantation when the tumor was approximately 300 mm^3.
A similar study was conducted in CD-1 nude mice (n=9) inoculated with 2×10^6 BxPC-3 cells. […]

MFL2 cells = assay: Survival of C57Bl/6 mice with MFL2 syngeneic AML tumors; type: in vivo
Procedure: C57Bl/6 mice were injected into their tail veins with 1 million MFL2 cells (Pardee, T. S. et al., Experimental Hematology, 2011, 39, 473-485) on Day 0 and beginning on Day 7, upon confirmation of engraftment by bioluminescence imaging, were treated by gavage with CPI-613 (300 mg/kg daily except weekends of a 50 mg/mL solution in 0.05 N NaOH in 5% dextrose, adjusted to pH 7.5-8 with 4% glacial acetic acid; 1 animal for the chloroquine experiment), intraperitoneally (IP) with chloroquine (200 μL (ca. 100 mg/kg) daily except weekends of a 10 mg/mL solution in PBS; Chlr; 3 animals), orally with metformin (1 mg/mL in the drinking water with ad lib access), or with a combination of CPI-613 (300 mg/kg daily gavage as above) and either chloroquine (200 μL daily IP as above; 4 animals) or metformin (1 mg/mL ad lib in drinking water as above) and followed for survival. Control animals (1 animal in chloroquine experiment) received both oral and IP vehicles. P value was determined by log rank test.

[2] = after IV dosing; Pardee et al. 2014; cited from earlier work
Baf3-p210 cells = assay: Survival of Balb/c mice with Baf3-p210 syngeneic ALL tumors; type: in vivo; details: CPI-613 250 mg/kg gavage once daily combined with doxorubicin 3 mg/kg IP for three days; compared to doxorubicin alone; FIG. 4
Procedure: Balb/c mice were injected into their tail veins with 1 million Baf3-p210 cells on Day 0 and beginning on Day 3, upon confirmation of engraftment by bioluminescence imaging, were treated with saline (control), doxorubicin (3 mg/kg IP in 200 μL PBS), or doxorubicin (3 mg/kg IP in 200 μL PBS) plus CPI-613 (250 mg/kg gavage of a 25 mg/mL solution of CPI-613 in 0.05 N NaOH in 5% dextrose, adjusted to pH 7.5-8 with 4% glacial acetic acid). and followed for survival. Doxorubicin was administered once daily for three consecutive days, and CPI-613 was administered once daily until death. P value was determined by log rank test.

[3] = test system: myelodysplastic syndrome (MDS), acute myeloid leukemia (AML), Burkitt lymphoma, and cutaneous T-cell lymphoma (CTCL); details: IV, days 1 and 4 of weeks 1, 2, 3 of a 4 week cycle, 840 mg/m^2 to 2940 mg/m^2 daily; cited from earlier work
Human H460 NSCLC cells = assay: Oral efficacy in human H460 NSCLC xenografts in mice; type: in vivo; details: H460 xenograft, CD1-Nu/Nu mice; oral gavage 100 mg/kg on day 8, 15, 22, 29; vs 5% dextrose or untreated; FIG. 1
Procedure: Human H460 NSCLC cells were obtained from American Type Cell Culture (ATCC) (catalog no. HTB-177, Manassas, Va.). These cells tested negative for viral contamination using the Mouse Antibody Production (MAP) test, performed by Charles River Labs Molecular Division, upon the receipt of the tumor cells from ATCC. The tumor cells were maintained at 37° C. in a humidified 5% CO2 atmosphere in T225 tissue culture flasks containing 50 mL of Roswell Park Memorial Institute (RPMI)-1640 solution with 10% Fetal Bovine Serum (FBS) and 2 mM L-glutamine. Cells were split at a ratio of 1:10 every 2-3 days by trypsinization and resuspended in fresh medium in a new flask. Cells were harvested for experiments in the same way at 70-90% confluency.
CD1-Nu/Nu female mice, ˜4-6 weeks old were obtained from Charles River Laboratories. Mice were housed 5 to a cage in a micro-isolator room in the Department of Animal Laboratory Research of New York State University (SUNY) at Stony Brook. Light-dark cycles were 12 h each daily, with light from 7 a.m. to 7 p.m. […]
An acclimation period of 7 days was allowed between the arrival of the animal at the study site before tumor inoculation and experimentation. […] Tumor dimensions (length and width) were measured daily before, during and after treatment (using Vernier calipers) and the tumor volume was calculated using the prolate ellipsoid formula: (length×width^2)/2. […]

[4] = test system: metastatic pancreatic adenocarcinoma; details: combined with modified FOLFIRINOX, cited from earlier work
[5] = test system: relapsed or refractory T-cell lymphoma; details: IV, days 1-4, 8, 11, 15, 18 of a 4 week cycle, 2000 mg/m^2 to 2750 mg/m^2, combined with bendamustine 90 mg/m^2; cited from earlier work
[6] = mouse, in vivo

O=C(O)CCCCC(CCSCc1ccccc1)SCc1ccccc1 (stereo not drawn)
tumor growth (tumor volume) [1]: especially pronounced | survival (MFL2 cells; CPI-613 300 mg/kg gavage combined with chloroquine ca. 100 mg/kg IP daily except weekends, FIG. 3A): significantly prolongs survival | survival (MFL2 cells; CPI-613 300 mg/kg gavage combined with metformin 1 mg/mL in drinking water, FIG. 3B): significantly prolongs survival | survival (MFL2 cells; CPI-613 300 mg/kg gavage daily except weekends from Day 7, FIGS. 3A, 3B): significantly prolongs survival | half-life [2]: 1 to 2 h | survival (Baf3-p210 cells): significantly prolongs survival | efficacy in patients [3]: showed efficacy | tumor growth (tumor volume) (Human H460 NSCLC cells): grew much more slowly | objective response ([4]; IV 500 mg/m^2 on days 1 and 3 of a two week cycle): 11 of 18 | maximum tolerated dose ([4]; IV, days 1 and 3 of a two week cycle): 500 mg/m^2 | efficacy in patients [5]: showed efficacy | oral bioavailability (in words) [6]: orally bioavailable
